These results are taken from paper PMC2937036 (PLoS ONE, 2010).

Where a SMILES comes first, the peptide text is derived from it. Bridges are numbered along the chain shown (N, C = ends).

Data set [1] deals with Staphylococcus aureus 42D. The experiment in a line: Bactericidal assay (LD99.9), S. aureus. The data set is classed as cell-based. As to conditions: 10 mM phosphate buffer pH 7.0 with 1% TSB, 2 h, 37°C. As for the experimental part: (§1) The peptides were tested for microbicidal activities against Bacillus subtilis ATCC6633, Escherichia coli ML35, and Staphylococcus aureus 42D as previously described. Suspensions of logarithmically growing test bacteria were incubated on a microtiter plate at a concentration of 10^5 colony-forming units/mL with various peptide dilutions. The medium was 100 µL of 10 mM phosphate buffer pH 7.0 supplemented with 1% (v/v) of tryptic soy broth (TSB). For later assays, human male serum was also added to a final concentration of 25%. 10 µL aliquots were collected at time 0 h and after 2 h of incubation on a rotary shaker (300 rpm) at 37°C. These were plated on blood agar plates and incubated overnight at 37°C. The Lethal Dose concentration (LD99.9) was determined, corresponding to the concentration killing >99.9% of the inoculum at 2 h. These experiments were performed in duplicate.
(§2) For the testing of the peptides' activities in different conditions, e.g. with serum, we use the same cut-off for activity as defined for Minimum Bactericidal Concentration (MBC), i.e. a 1000-fold reduction of the inoculum. However, we designate this peptide concentration with the more general term LD99.9 which can be applied to the specified conditions of the experiments performed here.

The subject of data set [2] is Staphylococcus aureus 42D. Nature of the data set: Bactericidal assay (LD99.9), S. aureus in 25% human serum. The data set is classed as cell-based. The note with it: unit not given (Table 3 uses µM). As for the experimental part: In order to be able to make a direct comparison with our serum stability measurements, a few peptides were selected to be tested for antimicrobial activity in 25% human serum (Table 4). […] All LD99.9 values are higher compared to the initial assays in 10 mM sodium phosphate buffer. Contributing factors to this general loss in activity could be the increased ionic concentration, interactions with serum components such as albumin or other proteins, and peptide degradation. Both hexamers with unprotected termini, Lfc1 and Com1, are no longer active while the cyclized short peptides remained fairly antimicrobial. In human serum, Lfc5 and Lfc6 are equally anti-staphylococcal. This reflects a greater loss of activity for Lfc6, but also coincides with the lower serum stability that this peptide has compared to Lfc5 (Fig. 2C). The activities of the cyclized Com peptides were all lowered equally with a 16-fold increase in LD99.9 values compared to activities in serum-excluded media and this agrees with their similar stability profiles (Fig. 2D).
as §1, §2

In data set [3] the test system is Escherichia coli ML35. The experiment in a line: Bactericidal assay (LD99.9), E. coli. The class given is cell-based. The note with it: 10 mM phosphate buffer pH 7.0 with 1% TSB, 2 h, 37°C. As for the experimental part: as §1, §2
For data set [4], the target named is bovine serum albumin (BSA) (Bos taurus, UniProt P02769). The experiment in a line: biochemical.
Protocol: (§3) The potential for interactions between various peptides and bovine and human serum albumin (BSA and HSA) were studied by microcalorimetry.
(§4) ITC experiments were performed at 25°C on a Microcal VP-ITC microcalorimeter with data analysis performed with the Microcal Origin software. The sample cell contained 0.1 mM of either BSA or HSA dissolved in 20 mM HEPES, 100 mM NaCl, pH 7.9. The syringe was loaded with 2 mM test peptide in the same buffer, and each titration point resulted from 5 µL injections following an initial 2 µL injection. Separate control experiments were also performed to account for heats of dilution/mixing.
Data set [5] in a line: in vitro. The note with it: male, human, 25% human male serum. As for the experimental part: To investigate the effects of the modifications on proteolytic susceptibility, the disappearance of the intact peptides incubated in diluted human serum at 37°C was followed by RP-HPLC. […] Incubations were normally done for 9 h and, in some cases, longer.
Peptide stabilities were assayed in diluted serum as previously described. 25% human male serum was centrifuged at 13,000 rpm for 10 min to remove lipids and the supernatant was collected and incubated at 37°C for at least 15 min. The assay was initiated upon the addition of the test peptide to the serum for a final peptide concentration of 5 µM. 200 µL aliquots of the incubations were taken for the following time points: 0, 30, 75, 120, 240, 390 and 540 min. The aliquots were mixed with 40 µL of 15% trichloroacetic acid (TCA) and incubated at 4°C for at least 15 min to precipitate serum proteins. In the case of Com5 and Com6, 5 µL of 1 M NaOH was supplemented to the TCA to prevent peptide precipitation. The supernatant was collected for each sample after centrifugation at 13,000 rpm for 10 min and stored at −20°C. These assays were performed in triplicate.
Reverse phase high performance liquid chromatography (RP-HPLC) analysis was performed with an AKTA Purifier from Amersham Biosciences (Westborough, MA) using an uRPC C2/C18 ST 4.6/100 column from Pharmacia Biotech (SanJose, CA) of the following dimensions: bed length 100 mm, i.d. 4.6 mm, 120Å. Individually thawed samples were injected through a 100 µL loop, after which a linear gradient was run from 100% solution A (0.05% trifluoroacetic acid (TFA) in filtered water) to 100% solution B (0.045% TFA in 90% acetonitrile) with a flow rate at 0.5 mL/min. The relative concentrations of the remaining soluble peptides were analyzed by the integration of the absorbance at 215 nm as a function of retention time using the Analysis module of the Unicorn software package.

For data set [6], the system named is Bacillus subtilis ATCC6633. The experiment in a line: Bactericidal assay (LD99.9), B. subtilis. The note with it: 10 mM phosphate buffer pH 7.0 with 1% TSB, 2 h, 37°C. The data set is classed as cell-based. As for the experimental part: as §1, §2
Data set [7] addresses human serum albumin (HSA) (Homo sapiens, UniProt P02768). The experiment in a line: biochemical.
Protocol: as §3, §4

Chain of human serum albumin (HSA) (P02768 25-609): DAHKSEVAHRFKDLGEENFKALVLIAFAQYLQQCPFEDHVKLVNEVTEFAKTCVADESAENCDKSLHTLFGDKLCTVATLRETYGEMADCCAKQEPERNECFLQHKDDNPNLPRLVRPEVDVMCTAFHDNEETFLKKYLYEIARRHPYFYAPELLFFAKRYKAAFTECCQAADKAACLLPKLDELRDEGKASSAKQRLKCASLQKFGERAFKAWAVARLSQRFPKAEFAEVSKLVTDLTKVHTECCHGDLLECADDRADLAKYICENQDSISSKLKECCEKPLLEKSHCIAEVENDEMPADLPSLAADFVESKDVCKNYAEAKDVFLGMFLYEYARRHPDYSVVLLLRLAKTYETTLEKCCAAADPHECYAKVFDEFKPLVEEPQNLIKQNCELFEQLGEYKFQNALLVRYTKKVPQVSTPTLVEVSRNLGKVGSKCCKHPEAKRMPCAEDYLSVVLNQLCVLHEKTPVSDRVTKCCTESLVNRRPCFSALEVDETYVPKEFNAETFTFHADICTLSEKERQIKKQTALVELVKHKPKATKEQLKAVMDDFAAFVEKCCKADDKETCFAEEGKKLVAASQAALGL
Chain of bovine serum albumin (BSA) (P02769 25-607): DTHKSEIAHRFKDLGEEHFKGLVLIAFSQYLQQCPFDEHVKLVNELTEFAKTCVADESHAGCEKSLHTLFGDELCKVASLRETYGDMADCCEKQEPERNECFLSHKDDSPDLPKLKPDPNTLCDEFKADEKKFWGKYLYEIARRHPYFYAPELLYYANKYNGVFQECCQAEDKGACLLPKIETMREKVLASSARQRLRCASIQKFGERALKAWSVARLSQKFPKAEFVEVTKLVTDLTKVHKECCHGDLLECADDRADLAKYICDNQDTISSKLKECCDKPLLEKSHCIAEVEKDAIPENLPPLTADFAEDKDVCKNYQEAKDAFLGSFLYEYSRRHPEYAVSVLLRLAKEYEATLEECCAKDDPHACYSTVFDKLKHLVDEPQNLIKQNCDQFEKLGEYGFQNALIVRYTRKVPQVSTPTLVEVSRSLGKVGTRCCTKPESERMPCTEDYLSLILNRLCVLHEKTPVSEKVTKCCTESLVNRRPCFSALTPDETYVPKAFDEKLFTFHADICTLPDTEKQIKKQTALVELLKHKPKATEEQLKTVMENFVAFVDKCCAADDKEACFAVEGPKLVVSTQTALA

Turning to `CC(=O)N[C@H]1CSSC[C@@H](C(N)=O)NC(=O)[C@H](Cc2ccccc2)NC(=O)[C@H](CCCNC(=N)N)NC(=O)[C@H](Cc2c[nH]c3ccccc23)NC(=O)[C@H](Cc2c[nH]c3ccccc23)NC(=O)[C@H](CCCNC(=N)N)NC(=O)[C@H](CCCNC(=N)N)NC1=O` [Com7, CH3CO-CRRWWRFC-NH2] (Ac-CRRWWRFC-NH2; disulfide 1-8), the “99.9% Lethal Dose Concentration (LD99.9) S. aureus” value in data set [1] is reported as 1.9 µM. Further, in data set [2], the “LD99.9 anti-S. aureus in 25% human serum” value is listed as 30. Also, the “99.9% Lethal Dose Concentration (LD99.9) E. coli” value in data set [3] is 30 µM. The affinity in data set [4], expressed as Kd, was 210 µM. In addition, the amount remaining (in general, the share of the starting amount still present when the sample was taken) at 6.5 h, 5 µM in data set [5] was approximately 50%. Further, in data set [6], the “99.9% Lethal Dose Concentration (LD99.9) B. subtilis” value was not above 0.45 µM.
With `CSCC[C@@H]1NC(=O)[C@H](CCCNC(=N)N)NC(=O)[C@H](Cc2c[nH]c3ccccc23)NC(=O)[C@H](CCC(N)=O)NC(=O)[C@H](Cc2c[nH]c3ccccc23)NC(=O)[C@H](CCCNC(=N)N)NC(=O)[C@H](CCCNC(=N)N)NC(=O)CNC(=O)[C@H](CC(C)C)NC(=O)[C@H](CCCCN)NC(=O)[C@H](CCCCN)NC1=O` [Lfc8, -RRWQWRMKKLG-] (cyclo(RRWQWRMKKLG)), the “99.9% Lethal Dose Concentration (LD99.9) S. aureus” value in data set [1] is recorded as 15 µM. In data set [3], the “99.9% Lethal Dose Concentration (LD99.9) E. coli” value stood at 3.8 µM. Further, binding in data set [7] was characterised by a dissociation constant (Kd) of 150 µM. Besides, in data set [6], the “99.9% Lethal Dose Concentration (LD99.9) B. subtilis” value is not above 0.45 µM.
